Laboratory results published in PubChem BioAssay AID1996.
In brackets after ≈: the same amount, converted by molar mass.

conditions: buffer; pH 7.4; 200.0 µM

SMILES | solubility kinetic [µg/mL]
O=C(/C=C/c1ccc(Cl)cc1)Nc1ccc(Br)cn1 | < 0.4
COc1ccc(OCC(O)CNC(=O)Nc2cc(F)ccc2C)cc1 (configuration not stated) | 17.2 (≈ 49.4 µM)
CC(=O)Oc1ccccc1-c1nc(/C=C/c2ccccc2)no1 | < 0.3
Cc1cc(S(=O)(=O)NCc2ccc3c(c2)OCO3)ccc1F | 46.8 (≈ 145 µM)
COCCCn1c(=S)[nH]c(C)c(C)c1=O | > 34.2
CCCC(=O)C1=C(N(C)c2ccccc2)CC(C)(C)CC1=O | 32.5 (≈ 109 µM)
CCOc1ccc(CNCc2ccccc2Cl)cc1.Cl | 31.6
OCC1(Cc2ccccc2)CCN(Cc2cc3ccccc3o2)CC1 | > 50.3
CN1C(=O)c2ccc(NC(=O)c3ccc(Cl)cc3Cl)cc2C1=O | 2.1 (≈ 6.01 µM)
Fc1ccccc1-c1nc(-c2cnccc2C(F)(F)F)no1 | 8 (≈ 25.9 µM)
O=C(CNC(=O)c1ccccc1Cl)Nc1ccncc1 | > 43.5
CCCC(=O)Nc1ccc(C(=O)COC(=O)C2CC2)cc1 | 15.3 (≈ 52.9 µM)
O=C(O)c1ccccc1-c1ccccc1C(=O)Nc1cccc(Br)c1 | 53.6 (≈ 135 µM)
Cc1cc(=O)[nH]c(N2CCCNCC2)n1 | > 31.2
N=c1oc2ccccc2cc1C(=O)Nc1ccc(F)cc1 | 0.6 (≈ 2.13 µM)
Cc1cccc(N2CCN(C(=O)c3ccc(NC(=O)CC4SC(N5CCCC5)=NC4=O)cc3)CC2)c1C (configuration not stated) | 30.3 (≈ 58.3 µM)
O=c1[nH]c2ccccc2nc1NCc1ccccc1 | 3.9 (≈ 15.5 µM)
Cc1c(Cl)cccc1NC(=O)c1cc(-c2ccco2)on1 | 0.8 (≈ 2.64 µM)
Cn1c(SCC(=O)N2CCCC2=O)nc2ccccc2c1=O | 13.2 (≈ 41.6 µM)

SMILES | solubility kinetic [µg/mL]
O=C(O)c1cc(=O)[nH]c2c(Cl)cccc12 | > 33.5
C=CCNC(=O)COc1ccc(S(=O)(=O)N2CCCC2)cc1 | > 48.7
O=C(NCCCNC(=O)c1ccccc1)c1ccccc1 | > 42.4
Cl.Fc1cccc(C2NCc3ccccc3-n3cccc32)c1 (configuration not stated) | 30.6
Cc1cccc(NC(=S)NCc2ccccc2)c1C | 35.1 (≈ 130 µM)
N#Cc1ccc(C(=O)CSc2n[nH]c(=O)n2-c2cccnc2)cc1 | > 50.6
Cc1cc(Nc2cccc(F)c2)nc(N2CCOCC2)n1 | 36.2 (≈ 126 µM)
O=C(CSc1ccccc1)NC1=NCCS1 | 32.4 (≈ 128 µM)
Cc1ccc(S(=O)(=O)N2CCN(Cc3cccnc3)CC2)cc1 | > 49.7
O=C1CCCN1C(=O)CSc1ncnc2sccc12 | > 44
Cn1ccsc1=NC(=O)c1ccc(S(=O)(=O)C(F)F)cc1 | 2.5 (≈ 7.52 µM)
NC(=O)COc1cc2oc(=O)c3c(c2cc1Cl)CCCC3 | 7.1 (≈ 23.1 µM)
CC(C)n1c(Oc2ccc(F)cc2)nc2c1c(=O)n(C)c(=O)n2C | 8.1 (≈ 24.4 µM)
C/C(=N\OC(=O)Nc1ccccc1)c1ccc(C)cc1 | 15 (≈ 55.9 µM)
Cc1ccc(CNC(=O)CSCc2ccccc2F)cc1 | 43.1 (≈ 142 µM)
Cc1[nH]n2cnnc2c(=O)c1Br.O=S(=O)(O)O | > 49.1
Cc1cc(C)c2sc(NC(=O)CN3C(=O)CCC3=O)nc2c1 | 46.4 (≈ 146 µM)
CCn1c(CO)nc2c1c(=O)[nH]c(=O)n2Cc1ccccc1 | > 45
